Results from patent publication US11266655B2, “Methods and compositions for treating urea cycle disorders” (Camp4 Therapeutics Corporation, priority 2019, dated 2022).
Several values for one entry are separate records, joined by “and”; a condition that tells them apart may be missing. Identical values can stand only once. Counter-ions that a name gives are not always drawn.

Tests used:
[1] = tested on: OTC; experiment: OTC expression modulated by compounds, OTC/GeoMean of housekeeping genes, DMSO = 1 (Table 3A); type: cell-based, human; settings: 10 uM final concentration
[2] = tested on: OTC; experiment: HSP90 or HSP70 inhibitors in primary human hepatocytes, OTC mRNA; type: cell-based; settings: hepatocytes from Donor B, normalized to B2M
Description: (§1) Additional small molecules that inhibit HSP90 or HSP70 were tested in primary human hepatocytes as described in Example 2. HSP90 or HSP70 inhibitors were tested in triplicate at 0.3 μM and 3 μM. The results are shown as the fold change (mRNA FC) in the mRNA levels of OTC and CPS1 genes after treatment compared to an untreated control (DMSO) and the standard deviation (SD). In addition, a dose titration experiment was performed with selected HSP90 inhibitors. Hepatocytes were incubated with increasing concentrations of HSP90 inhibitors and the changes in OTC and CPS1 expression quantified as previously described.
(§2) HSP90 and HSP70 inhibitors were compared to confirm the role of HSP90 in modulating OTC and CPS1 expression. Hepatocytes from Donor B were incubated with various HSP90 inhibitors or an HSP70 inhibitor, Pifithrin-μ, and then harvested for mRNA quantification. OTC and CPS1 mRNA levels were normalized to B2M.

[3] = tested on: CPS1; experiment: HSP90 or HSP70 inhibitors in primary human hepatocytes, CPS1 mRNA; type: cell-based; settings: hepatocytes from Donor B, normalized to B2M
Description: as §1, §2

[4] = tested on: ASS1; experiment: RNA-seq of compound-treated primary human hepatocytes, ASS1 expression; type: cell-based
[5] = tested on: ARG1; experiment: RNA-seq of compound-treated primary human hepatocytes, ARG1 expression; type: cell-based
[6] = tested on: SLC25A15; experiment: RNA-seq of compound-treated primary human hepatocytes, SLC25A15 expression; type: cell-based
[7] = tested on: SLC25A13; experiment: RNA-seq of compound-treated primary human hepatocytes, SLC25A13 expression; type: cell-based; settings: primary human hepatocytes, triplicate (Table 23, FIG. 15)
[8] = tested on: OTC; experiment: HSP90 inhibitor dose titration in hepatocytes of donors A and B, OTC mRNA normalized to B2M; type: cell-based, human; settings: 18 hours
Description: as §1
(§3) Hepatocytes from two different donors (A and B) were incubated with the various concentrations of HSP90 inhibitors for 18 hours and harvested for mRNA analysis. OTC and CPS1 mRNA were normalized to house keeping gene B2M gene expression.

[9] = tested on: CPS1; experiment: HSP90 inhibitor dose titration in hepatocytes of donors A and B, CPS1 mRNA normalized to B2M; type: cell-based, human; settings: 18 hours
Description: as §1, §3

SMILES: N#CC(C#N)=NNc1cccc(Cl)c1 [CCCP]
- Max Value (OTC/GeoMean of HKs; DMSO = 1) [1]: 4.06

SMILES: CC1(C)CC(=O)c2c(C(F)(F)F)nn(-c3ccc(C(N)=O)c(N[C@H]4CC[C@H](OC(=O)CN)CC4)c3)c2C1 [PF-04929113 (SNX-5422)]
- Max Value (OTC/GeoMean of HKs; DMSO = 1) [1]: 1.73

SMILES: CC1(C)CC[C@]2(C(=O)O)CC[C@]3(C)[C@H](C(=O)C=C4[C@@]5(C)C=C(C#N)C(=O)C(C)(C)[C@@H]5CC[C@]43C)[C@@H]2C1 [Bardoxolone]
- Max Value (OTC/GeoMean of HKs; DMSO = 1) [1]: 2.76

SMILES: CO[C@H]1/C=C\C=C(/C)C(=O)NC2=CC(=O)C(NCCN(C)C)=C(C[C@@H](C)C[C@H](OC)[C@H](O)[C@@H](C)/C=C(\C)[C@@H]1OC(N)=O)C2=O [Alvespimycin]
- OTC Expression mRNA FC ([2]; 0.3 uM): 3.03
- OTC Expression mRNA FC ([2]; 3 uM): 1.57
- CPS1 Expression mRNA FC ([3]; 0.3 uM): 2.33
- CPS1 Expression mRNA FC ([3]; 3 uM): 1.94

SMILES: CNC(=O)c1ccc(C)c(-n2c(C)cc(OCc3ccc(F)cc3F)c(Br)c2=O)c1 [PH-797804]
- Max Value (OTC/GeoMean of HKs; DMSO = 1) [1]: 1.53

SMILES: C=CCNc1c(O)cc2c(O)c1C[C@@H](C)C[C@H](OC)[C@H](O)[C@@H](C)/C=C(\C)[C@H](OC(N)=O)[C@@H](OC)/C=C\C=C(/C)C(=O)N2 [Retaspimycin Hydrochloride]
- Relative ASS1 level vs Untreated (±Standard Deviation) [4]: 1.38 ± 0.13
- Relative ARGI level vs Untreated (±Standard Deviation) [5]: 1.31 ± 0.12
- Relative SLC25A15 level vs Untreated (±Standard Deviation) ([6]; Hydrochloride): 1.35 ± 0.27 and 1.31 ± 0.08 and 1.54 ± 0.17 and 1.45 ± 0.01 and 1.60 ± 0.25 and 1.67 ± 0.17 and 1.93 ± 0.13 and 1.77 ± 0.11
- Relative SLC25A13 level vs Untreated (±Standard Deviation) ([7]; 0.3 μM): 1.35 ± 0.27
- Relative SLC25A13 level vs Untreated (±Standard Deviation) ([7]; 1 μM): 1.31 ± 0.08
- Relative SLC25A13 level vs Untreated (±Standard Deviation) ([7]; 3 μM): 1.54 ± 0.17
- Relative SLC25A13 level vs Untreated (±Standard Deviation) ([7]; 10 μM): 1.45 ± 0.01
- OTC Expression mRNA FC ([2]; 0.3 uM): 2.98
- OTC Expression mRNA FC ([2]; 3 uM): 2.53
- CPS1 Expression mRNA FC ([3]; 0.3 uM): 1.23
- CPS1 Expression mRNA FC ([3]; 3 uM): 2.24
- OTC mRNA FC, Donor A ([8]; 0.01 uM): 1.40
- OTC mRNA FC, Donor B ([8]; 0.01 uM): 1.31
- OTC mRNA FC, Donor A ([8]; 0.03 uM): 5.91
- OTC mRNA FC, Donor B ([8]; 0.03 uM): 1.78
- OTC mRNA FC, Donor A ([8]; 0.1 uM): 9.07
- OTC mRNA FC, Donor B ([8]; 0.1 uM): 5.18
- CPS1 mRNA FC, Donor A ([9]; 0.01 uM): 1.54
- CPS1 mRNA FC, Donor B ([9]; 0.01 uM): 1.29
- CPS1 mRNA FC, Donor A ([9]; 0.03 uM): 3.17
- CPS1 mRNA FC, Donor B ([9]; 0.03 uM): 1.67
- CPS1 mRNA FC, Donor A ([9]; 0.1 uM): 3.76
- CPS1 mRNA FC, Donor B ([9]; 0.1 uM): 2.57

SMILES: O=C(NCCCNc1nc(Nc2cccc(CN3CCOCC3)c2)ncc1C1CC1)C1CCC1 [MRT67307]
- Max Value (OTC/GeoMean of HKs; DMSO = 1) [1]: 1.68

SMILES: Cl.Cn1c(=O)c(Oc2ccc(F)cc2F)cc2cnc(NC3CCOCC3)nc21 [R1487 Hydrochloride]
- Relative SLC25A15 level vs Untreated (±Standard Deviation) ([6]; 1 μM, primary human hepatocytes, triplicate (Table 24, FIG. 16A-B)): 1.56 ± 0.16
- Relative SLC25A15 level vs Untreated (±Standard Deviation) ([6]; 10 μM, primary human hepatocytes, triplicate (Table 24, FIG. 16A-B)): 1.51 ± 0.09
- Max Value (OTC/GeoMean of HKs; DMSO = 1) [1]: 1.64
